Target: LRRK2 G2019S (Homo sapiens, UniProt Q5S007, G2019S)
Assay: LRRK2 G2019S Km ATP LanthaScreen assay
Assay type: biochemical
Conditions: read-out: LRRK2 pIC50 (converted)

Chain of LRRK2 G2019S (Q5S007 whole entry G2019S): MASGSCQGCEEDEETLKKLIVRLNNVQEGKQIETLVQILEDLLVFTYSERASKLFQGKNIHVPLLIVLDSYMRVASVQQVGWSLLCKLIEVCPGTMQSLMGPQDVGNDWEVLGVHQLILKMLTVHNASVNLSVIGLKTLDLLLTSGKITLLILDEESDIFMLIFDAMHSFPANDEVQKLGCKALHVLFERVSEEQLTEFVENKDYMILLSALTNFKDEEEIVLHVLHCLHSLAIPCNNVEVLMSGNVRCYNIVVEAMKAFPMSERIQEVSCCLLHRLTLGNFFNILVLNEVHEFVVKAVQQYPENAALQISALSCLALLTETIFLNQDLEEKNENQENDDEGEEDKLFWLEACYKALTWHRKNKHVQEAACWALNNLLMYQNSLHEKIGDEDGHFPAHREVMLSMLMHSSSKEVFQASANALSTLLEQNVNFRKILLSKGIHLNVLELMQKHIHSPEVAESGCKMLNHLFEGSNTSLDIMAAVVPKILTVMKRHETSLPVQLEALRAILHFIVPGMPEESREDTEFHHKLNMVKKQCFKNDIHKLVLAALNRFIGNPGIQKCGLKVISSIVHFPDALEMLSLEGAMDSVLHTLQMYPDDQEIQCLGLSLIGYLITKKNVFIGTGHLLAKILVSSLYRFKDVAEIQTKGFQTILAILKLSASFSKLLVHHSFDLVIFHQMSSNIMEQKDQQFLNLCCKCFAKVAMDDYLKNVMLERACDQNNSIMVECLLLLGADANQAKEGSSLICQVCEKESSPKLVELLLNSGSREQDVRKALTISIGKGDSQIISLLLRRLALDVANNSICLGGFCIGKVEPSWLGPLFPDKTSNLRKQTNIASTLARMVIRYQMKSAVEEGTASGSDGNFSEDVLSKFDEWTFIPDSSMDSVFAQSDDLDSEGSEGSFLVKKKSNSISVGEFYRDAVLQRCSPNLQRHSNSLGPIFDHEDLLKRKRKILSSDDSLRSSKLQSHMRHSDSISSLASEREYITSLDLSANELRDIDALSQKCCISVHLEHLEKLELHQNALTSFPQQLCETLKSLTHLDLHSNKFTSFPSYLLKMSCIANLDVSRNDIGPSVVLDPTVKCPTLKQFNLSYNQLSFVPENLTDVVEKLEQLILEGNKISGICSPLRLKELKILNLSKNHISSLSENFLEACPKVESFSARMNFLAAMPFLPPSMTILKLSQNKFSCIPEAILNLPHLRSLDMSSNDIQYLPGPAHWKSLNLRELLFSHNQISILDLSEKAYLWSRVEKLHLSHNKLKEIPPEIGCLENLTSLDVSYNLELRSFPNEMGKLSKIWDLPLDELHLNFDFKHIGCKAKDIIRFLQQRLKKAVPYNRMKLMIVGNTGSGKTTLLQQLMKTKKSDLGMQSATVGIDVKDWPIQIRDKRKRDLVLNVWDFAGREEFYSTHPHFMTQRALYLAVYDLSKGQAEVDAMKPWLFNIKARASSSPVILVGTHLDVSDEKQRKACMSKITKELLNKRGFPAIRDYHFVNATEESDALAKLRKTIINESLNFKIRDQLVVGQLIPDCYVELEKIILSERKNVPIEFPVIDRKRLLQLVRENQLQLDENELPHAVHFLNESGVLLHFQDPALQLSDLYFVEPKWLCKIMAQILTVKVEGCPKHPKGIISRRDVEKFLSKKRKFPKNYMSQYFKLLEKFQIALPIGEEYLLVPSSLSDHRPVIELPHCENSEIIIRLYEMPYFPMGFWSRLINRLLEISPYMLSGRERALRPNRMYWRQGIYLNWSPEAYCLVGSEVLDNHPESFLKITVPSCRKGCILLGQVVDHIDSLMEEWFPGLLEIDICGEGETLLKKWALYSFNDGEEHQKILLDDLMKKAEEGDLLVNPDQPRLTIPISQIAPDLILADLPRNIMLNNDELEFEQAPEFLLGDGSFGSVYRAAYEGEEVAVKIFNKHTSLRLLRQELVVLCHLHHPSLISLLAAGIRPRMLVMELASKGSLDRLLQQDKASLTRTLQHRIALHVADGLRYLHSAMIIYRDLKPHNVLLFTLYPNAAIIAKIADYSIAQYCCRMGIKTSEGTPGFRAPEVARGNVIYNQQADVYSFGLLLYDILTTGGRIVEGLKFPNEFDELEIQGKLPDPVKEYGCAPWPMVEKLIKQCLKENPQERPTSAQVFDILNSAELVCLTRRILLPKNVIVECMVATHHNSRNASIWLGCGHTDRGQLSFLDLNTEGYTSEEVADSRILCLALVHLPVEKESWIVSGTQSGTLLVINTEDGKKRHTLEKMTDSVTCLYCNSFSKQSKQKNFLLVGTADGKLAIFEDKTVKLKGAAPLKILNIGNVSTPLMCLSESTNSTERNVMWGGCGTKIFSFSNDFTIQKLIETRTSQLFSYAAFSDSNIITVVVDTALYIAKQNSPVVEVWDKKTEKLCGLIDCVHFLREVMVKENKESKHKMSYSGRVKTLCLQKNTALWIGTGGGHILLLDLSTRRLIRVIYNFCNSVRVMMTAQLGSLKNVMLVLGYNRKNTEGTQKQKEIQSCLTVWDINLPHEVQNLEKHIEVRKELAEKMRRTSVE

SMILES: CC1(N2CCC(c3cc4cc(NC(=O)C5CC5c5ccncc5)ncc4cc3Cl)CC2)COCC1O (single isomer, unassigned) [Ex-4.21, N-(7-chloro-6-(1-(4-hydroxy-3-methyltetrahydrofuran-3-yl)piperidin-4-yl)isoquinolin-3-yl)-2-(pyridin-4-yl)cyclopropane-1-carboxamide]
- IC50: 0.0813 nM

SMILES: CC1(N2CCC(c3cc4cc(NC(=O)C5CC5c5ccncc5)ncc4cc3Cl)CC2)COCC1O (single isomer, unassigned) [Ex-4.22, N-(7-chloro-6-(1-(4-hydroxy-3-methyltetrahydrofuran-3-yl)piperidin-4-yl)isoquinolin-3-yl)-2-(pyridin-4-yl)cyclopropane-1-carboxamide]
- IC50: 1.74 nM

SMILES: CC1(N2CCC(c3cc4cc(NC(=O)C5CCC6(CCC6)OC5)ncc4cc3Cl)CC2)COCC1O (single isomer, unassigned) [Ex-4.23, N-(7-chloro-6-(1-(4-hydroxy-3-methyltetrahydrofuran-3-yl)piperidin-4-yl)isoquinolin-3-yl)-5-oxaspiro[3.5]nonane-7-carboxamide]
- IC50: 2.34 nM

SMILES: CC1(N2CCC(c3cc4cc(NC(=O)C5CCC6(CCC6)OC5)ncc4cc3Cl)CC2)COCC1O (single isomer, unassigned) [Ex-4.24, N-(7-chloro-6-(1-(4-hydroxy-3-methyltetrahydrofuran-3-yl)piperidin-4-yl)isoquinolin-3-yl)-5-oxaspiro[3.5]nonane-7-carboxamide]
- IC50: 0.692 nM

SMILES: CC1(C)CCC(C(=O)Nc2cc3cc(C4CCN(C5(C)COCC5O)CC4)c(Cl)cc3cn2)CO1 (single isomer, unassigned) [Ex-4.25, N-(7-chloro-6-(1-(4-hydroxy-3-methyltetrahydrofuran-3-yl)piperidin-4-yl)isoquinolin-3-yl)-6,6-dimethyltetrahydrofuran-2H-pyran-3-carboxamide]
- IC50: 0.776 nM

SMILES: CC1(C)CCC(C(=O)Nc2cc3cc(C4CCN(C5(C)COCC5O)CC4)c(Cl)cc3cn2)CO1 (single isomer, unassigned) [Ex-4.26, N-(7-chloro-6-(1-(4-hydroxy-3-methyltetrahydrofuran-3-yl)piperidin-4-yl)isoquinolin-3-yl)-6,6-dimethyltetrahydrofuran-2H-pyran-3-carboxamide]
- IC50: 0.427 nM

SMILES: CN(C)C1CCC2C(C(=O)Nc3cc4cc(C5CCN(C6(C)COCC6O)CC5)c(Cl)cc4cn3)C21 (single isomer, unassigned) [Ex-4.27, N-(7-chloro-6-(1-(4-hydroxy-3-methyltetrahydrofuran-3-yl)piperidin-4-yl)isoquinolin-3-yl)-2-(dimethylamino)bicyclo[3.1.0]hexane-6-carboxamide]
- IC50: 2.57 nM

SMILES: CN(C)C1CCC2C(C(=O)Nc3cc4cc(C5CCN(C6(C)COCC6O)CC5)c(Cl)cc4cn3)C21 (single isomer, unassigned) [Ex-4.28, N-(7-chloro-6-(1-(4-hydroxy-3-methyltetrahydrofuran-3-yl)piperidin-4-yl)isoquinolin-3-yl)-2-(dimethylamino)bicyclo[3.1.0]hexane-6-carboxamide]
- IC50: 0.0813 nM

SMILES: CCOC1CC2(C1)CC2C(=O)Nc1cc2cc(C3CCN(C4(C)COCC4O)CC3)c(Cl)cc2cn1 (single isomer, unassigned) [Ex-4.29, N-(7-chloro-6-(1-(4-hydroxy-3-methyltetrahydrofuran-3-yl)piperidin-4-yl)isoquinolin-3-yl)-5-ethoxyspiro[2.3]hexane-1-carboxamide]
- IC50: 7.94 nM

SMILES: CCOC1CC2(C1)CC2C(=O)Nc1cc2cc(C3CCN(C4(C)COCC4O)CC3)c(Cl)cc2cn1 (single isomer, unassigned) [Ex-4.30, N-(7-chloro-6-(1-(4-hydroxy-3-methyltetrahydrofuran-3-yl)piperidin-4-yl)isoquinolin-3-yl)-5-ethoxyspiro[2.3]hexane-1-carboxamide]
- IC50: 3.02 nM

SMILES: CCOC1CC2(C1)CC2C(=O)Nc1cc2cc(C3CCN(C4(C)COCC4O)CC3)c(Cl)cc2cn1 (single isomer, unassigned) [Ex-4.31, N-(7-chloro-6-(1-(4-hydroxy-3-methyltetrahydrofuran-3-yl)piperidin-4-yl)isoquinolin-3-yl)-5-ethoxyspiro[2.3]hexane-1-carboxamide]
- IC50: 5.62 nM

SMILES: CCOC1CC2(C1)CC2C(=O)Nc1cc2cc(C3CCN(C4(C)COCC4O)CC3)c(Cl)cc2cn1 (single isomer, unassigned) [Ex-4.32, N-(7-chloro-6-(1-(4-hydroxy-3-methyltetrahydrofuran-3-yl)piperidin-4-yl)isoquinolin-3-yl)-5-ethoxyspiro[2.3]hexane-1-carboxamide]
- IC50: 2.57 nM

SMILES: CC1(N2CCC(c3cc4cc(NC(=O)C5C6CCOCC65)ncc4cc3Cl)CC2)COCC1O (single isomer, unassigned) [Ex-4.33, N-(7-chloro-6-(1-(4-hydroxy-3-methyltetrahydrofuran-3-yl)piperidin-4-yl)isoquinolin-3-yl)-3-oxabicyclo[4.1.0]heptane-7-carboxamide]
- IC50: 1.17 nM

SMILES: CC1(N2CCC(c3cc4cc(NC(=O)C5C6CCOCC65)ncc4cc3Cl)CC2)COCC1O (single isomer, unassigned) [Ex-4.34, N-(7-chloro-6-(1-(4-hydroxy-3-methyltetrahydrofuran-3-yl)piperidin-4-yl)isoquinolin-3-yl)-3-oxabicyclo[4.1.0]heptane-7-carboxamide]
- IC50: 1.38 nM

SMILES: CC1(N2CCC(c3cc4cc(NC(=O)C5CC5c5cncnc5)ncc4cc3Cl)CC2)COCC1O (single isomer, unassigned) [Ex-4.35, N-(7-chloro-6-(1-(4-hydroxy-3-methyltetrahydrofuran-3-yl)piperidin-4-yl)isoquinolin-3-yl)-2-(pyrimidin-5-yl)cyclopropane-1-carboxamide]
- IC50: 0.692 nM

SMILES: CC1(N2CCC(c3cc4cc(NC(=O)C5CC5c5cncnc5)ncc4cc3Cl)CC2)COCC1O (single isomer, unassigned) [Ex-4.36, N-(7-chloro-6-(1-(4-hydroxy-3-methyltetrahydrofuran-3-yl)piperidin-4-yl)isoquinolin-3-yl)-2-(pyrimidin-5-yl)cyclopropane-1-carboxamide]
- IC50: 0.562 nM

SMILES: Cn1ncc(C2CC2C(=O)Nc2cc3cc(C4CCN(C5(C)COCC5O)CC4)c(Cl)cc3cn2)c1C(F)(F)F (single isomer, unassigned) [Ex-4.37, N-(7-chloro-6-(1-(4-hydroxy-3-methyltetrahydrofuran-3-yl)piperidin-4-yl)isoquinolin-3-yl)-2-(1-methyl-5-(trifluoromethyl)-1H-pyrazol-4-yl)cyclopropane-1-carboxamide]
- IC50: 0.0813 nM

SMILES: CC1(N2CCC(c3cc4cc(NC(=O)C5CC5c5cc(F)ccn5)ncc4cc3Cl)CC2)COCC1O (single isomer, unassigned) [Ex-4.39, N-(7-chloro-6-(1-(4-hydroxy-3-methyltetrahydrofuran-3-yl)piperidin-4-yl)isoquinolin-3-yl)-2-(4-fluoropyridin-2-yl)cyclopropane-1-carboxamide]
- IC50: 135 nM

SMILES: CC1(N2CCC(c3cc4cc(NC(=O)C5CC5c5cc(F)ccn5)ncc4cc3Cl)CC2)COCC1O (single isomer, unassigned) [Ex-4.40, N-(7-chloro-6-(1-(4-hydroxy-3-methyltetrahydrofuran-3-yl)piperidin-4-yl)isoquinolin-3-yl)-2-(4-fluoropyridin-2-yl)cyclopropane-1-carboxamide]
- IC50: 257 nM

SMILES: CC1(N2CCC(c3cc4cc(NC(=O)C5CC5c5cccnc5)ncc4cc3Cl)CC2)COCC1O (single isomer, unassigned) [Ex-4.41, N-(7-chloro-6-(1-(4-hydroxy-3-methyltetrahydrofuran-3-yl)piperidin-4-yl)isoquinolin-3-yl)-2-(pyridin-3-yl)cyclopropane-1-carboxamide]
- IC50: 45.7 nM

SMILES: CC1(N2CCC(c3cc4cc(NC(=O)C5CC5c5cccnc5)ncc4cc3Cl)CC2)COCC1O (single isomer, unassigned) [Ex-4.42, N-(7-chloro-6-(1-(4-hydroxy-3-methyltetrahydrofuran-3-yl)piperidin-4-yl)isoquinolin-3-yl)-2-(pyridin-3-yl)cyclopropane-1-carboxamide]
- IC50: 200 nM

SMILES: CC1(N2CCC(c3cc4cc(NC(=O)C5CC5C(F)F)ncc4cc3Cl)CC2)COCC1O (single isomer, unassigned) [Ex-4.43, N-(7-chloro-6-(1-(4-hydroxy-3-methyltetrahydrofuran-3-yl)piperidin-4-yl)isoquinolin-3-yl)-2-(difluoromethyl)cyclopropane-1-carboxamide]
- IC50: 1.48 nM

SMILES: CC1(N2CCC(c3cc4cc(NC(=O)C5CC5C(F)F)ncc4cc3Cl)CC2)COCC1O (single isomer, unassigned) [Ex-4.44, N-(7-chloro-6-(1-(4-hydroxy-3-methyltetrahydrofuran-3-yl)piperidin-4-yl)isoquinolin-3-yl)-2-(difluoromethyl)cyclopropane-1-carboxamide]
- IC50: 0.562 nM

SMILES: CC1(C)C(C(=O)Nc2cc3cc(C4CCN(C5(C)COCC5O)CC4)c(Cl)cc3cn2)C1c1ccccn1 (single isomer, unassigned) [Ex-4.45, N-(7-chloro-6-(1-(4-hydroxy-3-methyltetrahydrofuran-3-yl)piperidin-4-yl)isoquinolin-3-yl)-2,2-dimethyl-3-(pyridin-2-yl)cyclopropane-1-carboxamide]
- IC50: 7.08 nM

SMILES: CC1(C)C(C(=O)Nc2cc3cc(C4CCN(C5(C)COCC5O)CC4)c(Cl)cc3cn2)C1c1ccccn1 (single isomer, unassigned) [Ex-4.46, N-(7-chloro-6-(1-(4-hydroxy-3-methyltetrahydrofuran-3-yl)piperidin-4-yl)isoquinolin-3-yl)-2,2-dimethyl-3-(pyridin-2-yl)cyclopropane-1-carboxamide]
- IC50: 3.55 nM

SMILES: CC(C)(F)C1CC1C(=O)Nc1cc2cc(C3CCN(C4(C)COCC4O)CC3)c(Cl)cc2cn1 (single isomer, unassigned) [Ex-4.47, N-(7-chloro-6-(1-(4-hydroxy-3-methyltetrahydrofuran-3-yl)piperidin-4-yl)isoquinolin-3-yl)-2-(2-fluoropropan-2-yl)cyclopropane-1-carboxamide]
- IC50: 2 nM

SMILES: CC(C)(F)C1CC1C(=O)Nc1cc2cc(C3CCN(C4(C)COCC4O)CC3)c(Cl)cc2cn1 (single isomer, unassigned) [Ex-4.48, N-(7-chloro-6-(1-(4-hydroxy-3-methyltetrahydrofuran-3-yl)piperidin-4-yl)isoquinolin-3-yl)-2-(2-fluoropropan-2-yl)cyclopropane-1-carboxamide]
- IC50: 1.26 nM

From patent publication US20240398784A1, “C-LINKED ISOQUINOLINE AMIDES AS LRRK2 INHIBITORS, PHARMACEUTICAL COMPOSITIONS, AND USES THEREOF” (Merck Sharp & Dohme LLC, priority 2021, published 2024)
